Results taken from PMC4229098, “Alzheimer's Therapeutics Targeting Amyloid Beta 1–42 Oligomers I: Abeta 42 Oligomer Binding to Specific Neuronal Receptors Is Displaced by Drug Candidates That Improve Cognitive Deficits” (PLoS ONE, 2014).
Where two headings read alike, the source gives them in different places.

How the values were obtained:
[1] = system: mature primary hippocampal and cortical cultures; test: Membrane trafficking assay (MTT formazan exocytosis); assay type: cell-based, rat; conditions: for activity in blocking effects of Abeta oligomers: control compounds; for Schild slope: against synthetic oligomers;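 for all read-outs here: mixed neuron and glia cultures from E18 Sprague-Dawley rat embryos, grown 3 weeks in 384-well plates, labeled vesicles quantified by imaging or spectrophotometry as percent of vehicle-treated wells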
Protocol: Vesicular trafficking was measured using an adaptation of a method by Liu and Schubert [51]. […] Tetrazolium salts (3-(4,5-dimethylthiazol-2yl)-2,5diphenyl tetrazolium bromide, Roche Molecular Biochemicals) were added to a final concentration of 0.75 mM and incubated at 37°C for 60–90 min. Vesicular formazan remaining in cells was quantified by absorbance spectrometry (590 nm with 690 nm subtracted) following extraction with 1.6% Tween-20. All compounds were tested in quadruplicate wells for each concentration in at least 8 replicate experiments with data from all experiments pooled for analysis with means ± S.E.M.
The amount of labeled vesicles in treated cells is quantified by automated image processing or by spectrophotometry following extraction from cells and is calculated as a percentage of vehicle-treated values. Control wells consist of Abeta and vehicle treatment without test compounds. […] In the prevention configuration of this assay, compounds are added to neuronal cultures first, followed by oligomers. Compounds are also tested in the treatment configuration of this assay in which oligomers are added to the cultures first, followed by compound addition.

[2] = system: neuronal synaptic puncta in hippocampal/cortical cultures; test: Abeta binding assay, neurons (immunofluorescence of neurite puncta); design: species or system rat; conditions: for displacement of Abeta oligomers: 15 µM compound added 1 hour after oligomers 0.5 µM, within 1 hour; for prevention of binding of Abeta oligomers to neuronal cultures: 15 µM compound one hour prior to synthetic Abeta oligomers 0.5 µM; for EC50: single site model
[3] = system: hAPP Swe/Ldn transgenic mice; test: Contextual fear conditioning in transgenic mice; assay type: in vivo; conditions: 5.5 months, 9 month old males
Excerpt: (§1) All procedures were approved by the Institutional Animal Care and Use and Committee at Columbia University and Stanford University and were in compliance with the Office of Laboratory Animal Welfare and the Guide for the Care and Use of Laboratory Animals, Eighth Edition. Behavioral testing of wild-type, 3–4 month old, male, C57/BL6 mice, injected bilaterally into their hippocampus with Abeta oligomers and testing in the fear conditioning task was done according to published methods. Animals were anesthetized with […] Avertin prior to implantation of cannulas into the hippocampus. Testing of transgenic hAPP Swedish/London mice in the Morris water maze or fear conditioning tasks was done according to published methods, [38]. To measure brain concentration of drugs, brains were homogenized in 1 ml PBS per gram of brain tissue using a handheld homogenizer. Brain homogenate was then extracted with three volumes of ice cold methanol on ice for 15 minutes and centrifuged for 15 min. The supernates were analyzed by LC/MS/MS. Samples were compared to a calibration curve prepared in a similar manner by spiking blank control homogenate with standards prepared in DMSO and then extracted as above. At the end of all behavioral testing, animals were euthanized with CO2 followed by cervical dislocation.

[4] = system: synaptophysin-immunopositive puncta along MAP2-labeled neurites; test: Synapse counting assay; assay type: cell-based, rat; conditions: for Affects Synapse density in the absence of Aβ: Table S1
Protocol: Sprague-Dawley rats, 18 days pregnant, were euthanized by CO2 asphyxiation followed by cervical dislocation, and embryos were removed. Hippocampus and cortical tissue from the embryo brains were digested in 2.5% Trypsin (Life Technologies) to dissociate cells. Isolated cells were plated at a density of 4.6×10^4 cells per cm^2 in 384-well poly-D Lysine coated plates (Greiner) in Neurobasal Media (Life Technologies) supplemented with B27 (Life Technologies), Glutamax (Life Technologies) and antibiotics (penicillin, 50 units/ml and streptomycin 50 µg/ml, Life Technologies). Cultures were maintained at 37°C in 5% CO2 with weekly media change for 3 weeks prior to experimentation. These mixed cultures of hippocampal plus cortical neurons and glia were used for all of the in vitro experiments described.
Cultures were treated with compounds for 60 minutes prior to addition of 6 µM (maximum from trafficking dose-response curve) of synthetic Abeta 1–42 oligomers and incubated for 24 hrs. Cultures were fixed and immunofluorescently labeled and imaged as for the Abeta binding assay. The ThermoFisher/Cellomics Neuronal Profiling bioapplication was used to count synaptophysin-immunopositive puncta along MAP2-labeled neurites. The number of puncta per unit length of neurites was used to determine effects of treatments. To attain statistical power of 80% and a p value of less than 0.05 (determined using G*Power software), twenty replicate wells were treated per experiment plate and compared to control wells on the same plate and experiments were repeated four times.

[5] = system: mouse models of Alzheimer's disease; test: Behavioral tests (behavioral efficacy summary); assay type: in vivo, mice; design: key to Measured efficacy: statistically significant improvement (+); no significant improvement (-); conditions: for Behavioral efficacy: Table S1
Excerpt: as §1

sigma-2/PGRMC1 receptor = target: T1, sigma-2/PGRMC1 receptor (Homo sapiens, UniProt Q5BJF2); test: Sigma-2 radioligand binding; conditions: radioligand competition binding; read-out: Ki, binding affinity at the sigma-2/PGRMC1 receptor
T1 construct: endogenous in cells; host or cells: human Jurkat cells (membranes)
T1 sequence (Q5BJF2 whole entry): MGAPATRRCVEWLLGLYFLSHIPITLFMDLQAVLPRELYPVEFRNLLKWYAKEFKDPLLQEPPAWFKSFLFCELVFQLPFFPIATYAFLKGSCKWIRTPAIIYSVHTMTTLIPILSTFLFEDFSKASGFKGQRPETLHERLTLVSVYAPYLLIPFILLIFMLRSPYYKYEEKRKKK
Protocol: Radioligand competition assays were performed in membranes from human Jurkat cells using 5 nM [^3H]1,3-di(2-tolyl) guanidine in the presence of 1 µM (+)-pentazocine with 10 µM haloperidol to define non-specific binding.

[6] = Brain concentration of compounds (LC/MS/MS); assay type: in vivo, mice; conditions: mouse, 24 h after last dose, read-out: Compound Concentration in brain
Excerpt: as §1

Abeta 1–42 oligomers = target: T2, Abeta 1–42 oligomers (Homo sapiens, UniProt P05067); test: Oligomer-specific Abeta ELISA (direct action on oligomers); assay type: biochemical
T2 construct: purchased California Peptide Inc; American Peptide Company; or University of Pittsburgh Peptide Core facility 641-15; 62-0-80; host or cells: chemical synthesis
T2 sequence (P05067 672-713): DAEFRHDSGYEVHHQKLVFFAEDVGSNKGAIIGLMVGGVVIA
Protocol: Determination of oligomeric and monomeric concentrations of Abeta contained in a given Abeta preparation was done according to the method of LeVine. Briefly, total Abeta concentration is measured by two-site ELISA using different capture (6E10 monoclonal antibody, Covance SIG-39320) and detection (4G8- conjugated to biotin, Covance, SIG39240) antibodies and quantifyied with streptavidin-horseradish peroxidase (Millipore catalog number AP308P). Oligomerized Abeta is measured in the same samples by a single-site ELISA in which monoclonal antibodies to the same epitope are used for capture (4G8, Covance SIG-39330) and detection (4G8-biotin). The 4G8-biotin cannot bind to captured monomer because the epitope is blocked by the capture antibody, so only oligomers are detected with this configuration. The streptavidin-horseradish peroxidase therefore reports only oligomeric Abeta which has additional exposed 4G8 epitopes. Monomer concentration is calculated as the difference between total Abeta concentration and oligomer concentration.

[7] = system: C57/BL6 mice injected with Abeta oligomers; test: Contextual fear conditioning after intrahippocampal Abeta oligomer injection; assay type: in vivo; conditions: 2 µM intrahippocampal
Excerpt: as §1

[8] = Rattus norvegicus, compound added 1 hr prior to Abeta oligomers, log value, read-out: Prevention Log EC50 ± SE (converted)
[9] = Rattus norvegicus, compound added 1 hr prior to synthetic Abeta oligomers, read-out: Prevention EC50

Molecule: semi-synthetic oligomers: Abeta 1–42 monomers incubated in size excluded rat brain homogenate, immunoprecipitated with 6E10 [reference compound]
- Treatment duration for maximum response ([1]; Abeta preparation dosed alone): 1 h
- EC50 ([1]; preparation dosed alone, read-out: EC50 of Abeta preparation): 0.0059 µM

Molecule: O[C@H]1[C@H](O)[C@@H](O)[C@H](O)[C@@H](O)[C@@H]1O [scyllo-inositol, reference compound]
- activity in blocking effects of Abeta oligomers [1]: only memantine was active

Molecule: C[C@H](CCc1ccc(Cl)c(Cl)c1)NCc1ccc(C(F)(F)F)cc1 [CT01344]
- displacement of Abeta oligomers [2]: 66±14%
- prevention of binding of Abeta oligomers to neuronal cultures [2]: 94%±4%
- IC50 ([2]; displacement of pre-bound oligomers, read-out: IC50, Abeta binding, treatment): 3.9 µM
- EC50 ([2]; read-out: EC50, displacement of pre-bound Abeta binding): 3.9 ± 1.8 µM
- contextual fear memory performance ([3]; 10 mg/kg/day p.o.): significantly improved fear memory performance
- contextual fear memory performance ([3]; 30 mg/kg/day p.o.): significantly improved fear memory performance
- restoration of synapse loss induced by Abeta ([4]; 15 µM): 100%
- Affects Synapse density in the absence of Aβ [4]: No
- Measured efficacy ([5]; 10 mg/kg/day oral gavage): +
- Measured efficacy ([5]; 30 mg/kg/day oral gavage): +
- Behavioral efficacy [5]: Yes
- EC50 ([1]; Rattus norvegicus, 1 h, compound added 1 hr after Abeta oligomers, log value, read-out: Treatment Log EC50 ± SE (converted)): 6.46 µM
- EC50 ([1]; Rattus norvegicus, 1 h, compound added 1 hr after synthetic Abeta oligomers, read-out: Treatment EC50): 7.3 µM
- EC50 [1, 8]: 8.71 µM
- EC50 [1, 9]: 8.7 µM
- Schild slope [1]: 1
- Ki (sigma-2/PGRMC1 receptor): 0.048 µM
- concentration at 24 h ([6]; hAPP Swe/Ldn transgenic, 10 mg/kg/day once daily oral gavage): 394 nM
- concentration at 24 h ([6]; hAPP Swe/Ldn transgenic, 30 mg/kg/day once daily oral gavage): 793 nM

Molecule: C[N+](C)(C)CCCCCC[N+](C)(C)C [hexamethonium bromide, reference compound]
- activity in blocking effects of Abeta oligomers [1]: only memantine was active

Molecule: CC(C)=CC(C[C@H](C)c1ccc(C)cc1)NCC(C)C (stereo partly drawn) [CT0093]
- displacement of Abeta oligomers [2]: 49±5%
- prevention of binding of Abeta oligomers to neuronal cultures [2]: 93%±2%
- IC50 ([2]; compound before oligomers, read-out: IC50, Abeta binding, prevention): 2.2 µM
- EC50 ([2]; pretreatment, read-out: EC50, prevention of Abeta binding): 2.2 ± 2.4 µM
- Affects Synapse density in the absence of Aβ [4]: No
- Measured efficacy ([5]; 1 mg/kg/day s.c. osmotic minipump): -
- Measured efficacy ([5]; 10 mg/kg/day s.c. osmotic minipump): +
- Behavioral efficacy [5]: Yes
- EC50 [1, 8]: 4.9 µM
- EC50 [1, 9]: 4.9 µM
- EC50 ([1]; Rattus norvegicus, compound added 1 hr after Abeta oligomers, log value, read-out: Treatment Log EC50 ± SE (converted)): 2 µM
- EC50 ([1]; Rattus norvegicus, compound added 1 hr after synthetic Abeta oligomers, read-out: Treatment EC50): 2 µM
- Schild slope [1]: 1
- reversal of trafficking deficit caused by human patient derived Abeta ([1]; compound 0.2 µM, Abeta 1.5 pM): reverse the trafficking deficit
- effect on trafficking of compound alone ([1]; no Abeta): without affecting trafficking on their own
- Ki (sigma-2/PGRMC1 receptor): 0.054 µM
- dissociation of preformed oligomers (Abeta 1–42 oligomers): not by CT0109 or CT0093
- prevention of Abeta oligomer-induced fear memory deficits ([7]; one hour prior to oligomer injection): completely prevented fear memory deficits
- effect on fear memory when administered alone ([7]; without Abeta): no effect on memory
- concentration at 24 h ([6]; hAPP Swedish/London transgenic, subcutaneous, 1 mg/kg/day s.c. osmotic minipump): 64 nM
- concentration at 24 h ([6]; hAPP Swedish/London transgenic, subcutaneous, 10 mg/kg/day s.c. osmotic minipump): 555 nM

Molecule: CC12CC3CC(C)(C1)CC(N)(C3)C2 [memantine, reference compound]
- doses weakly blocking oligomer effects ([1]; control compound vs Abeta oligomers): above 100 µM
